# From article PMC9018117 (The Journal of nutritional biochemistry, 2021)
# T1: human recombinant 5-LOX (Homo sapiens, UniProt P09917)
# T1 sequence (P09917 1-674): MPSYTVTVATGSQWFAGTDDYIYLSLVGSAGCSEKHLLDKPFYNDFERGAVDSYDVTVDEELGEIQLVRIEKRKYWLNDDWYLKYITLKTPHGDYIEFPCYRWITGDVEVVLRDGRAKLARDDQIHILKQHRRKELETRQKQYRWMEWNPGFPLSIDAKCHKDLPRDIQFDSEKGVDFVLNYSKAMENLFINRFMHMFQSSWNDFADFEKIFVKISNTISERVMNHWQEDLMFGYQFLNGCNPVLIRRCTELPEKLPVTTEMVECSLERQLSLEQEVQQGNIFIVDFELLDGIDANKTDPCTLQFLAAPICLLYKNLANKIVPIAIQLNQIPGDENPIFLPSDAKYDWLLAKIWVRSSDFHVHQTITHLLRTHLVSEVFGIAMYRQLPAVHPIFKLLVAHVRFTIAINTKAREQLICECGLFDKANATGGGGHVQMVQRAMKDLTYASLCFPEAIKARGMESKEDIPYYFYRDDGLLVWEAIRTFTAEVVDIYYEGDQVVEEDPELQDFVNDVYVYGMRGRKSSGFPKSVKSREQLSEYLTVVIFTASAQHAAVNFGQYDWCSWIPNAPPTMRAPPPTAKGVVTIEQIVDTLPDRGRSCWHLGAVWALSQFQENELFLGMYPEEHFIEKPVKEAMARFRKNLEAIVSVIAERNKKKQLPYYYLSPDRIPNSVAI
# Columns and labels:
# human recombinant 5-LOX [1] = biological target: T1, human recombinant 5-LOX; experiment: 5-LOX activity, ferrous oxidation-xylenol orange; format: biochemical
# [2] = test system: COX-2-mediated PGE2 in A549 cells; experiment: COX-2 activity in intact-cell assay, IL-1β-stimulated A549 cells; format: cell-based, human; details: read-out: IC50 for inhibition of COX-2-mediated PGE2; IL-1β-stimulated A549 epithelial cells; 5 μM AA
# [3] = test system: 5-LOX translocation in differentiated HL-60 cells; experiment: 5-LOX translocation from cytosol to nucleus by western blotting; format: cell-based, human; details: 20 μM, 30 min preincubation
# human recombinant 5-LOX [4] = biological target: T1, human recombinant 5-LOX; experiment: 5-LOX enzyme kinetics; format: biochemical; details: for Nature of inhibition of 5-LOX: Lineweaver-Burk double reciprocal plot
# human recombinant COX-1 = human recombinant COX-1 (Homo sapiens, UniProt P23219); experiment: COX-1 activity assay using purified enzyme; format: biochemical
# Sequence of human recombinant COX-1 (P23219 24-599): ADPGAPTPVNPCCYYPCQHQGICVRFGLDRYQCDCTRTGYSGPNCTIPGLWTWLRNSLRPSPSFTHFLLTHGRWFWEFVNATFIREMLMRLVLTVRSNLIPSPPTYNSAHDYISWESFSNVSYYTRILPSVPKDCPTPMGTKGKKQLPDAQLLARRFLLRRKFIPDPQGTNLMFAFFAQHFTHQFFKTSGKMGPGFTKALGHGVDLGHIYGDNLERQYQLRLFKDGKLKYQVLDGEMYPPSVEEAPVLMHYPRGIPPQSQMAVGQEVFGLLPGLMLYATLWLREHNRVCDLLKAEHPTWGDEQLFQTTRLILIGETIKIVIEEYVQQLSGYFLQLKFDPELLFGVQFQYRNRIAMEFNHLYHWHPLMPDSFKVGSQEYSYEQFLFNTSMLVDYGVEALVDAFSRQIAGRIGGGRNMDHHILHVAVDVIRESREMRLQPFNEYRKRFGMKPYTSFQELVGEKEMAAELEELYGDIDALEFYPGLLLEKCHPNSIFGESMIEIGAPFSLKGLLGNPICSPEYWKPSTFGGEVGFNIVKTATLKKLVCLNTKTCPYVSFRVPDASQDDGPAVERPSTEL
# [5] = test system: LTB4 formation in differentiated HL-60 cells; experiment: LTB4 formation in stimulated neutrophil-like differentiated HL-60 cells; format: cell-based, human; details: for Effect on THAP-stimulated LTB4 (in words): at up to 50 μM, not shown
# 5-LOX = details: read-out: IC50 for inhibition of 5-LOX; ref 10 (Pein et al); cited from earlier work
# LTB4 in cells = details: read-out: IC50 for inhibition of LTB4 in cells; ref 10 (Pein et al); cited from earlier work
# [6] = test system: 5-LOX translocation in differentiated HL-60 cells; details: cited from earlier work
# 5-LOX enzyme kinetics = substrate: CCCCC/C=C\C/C=C\C/C=C\C/C=C\CCCC(=O)O; experiment: 5-LOX enzyme kinetics; format: biochemical, human; details: other: substrate AA 5–50 μM; oxygen consumption; pH 7.4
molecule,measurement,setting,value
"Cc1c(O)cc2c(c1C)OC(C)(CCC(=O)O)CC2 (stereo not drawn) [γ-CEHC, 2-(β-carboxyethyl)-6-hydroxychroman]",IC50,human recombinant 5-LOX [1],> 50000 nM
"Cc1cc(O)cc2c1OC(C)(CCCC(C)CCCC(C)CCCC(C)C(=O)O)CC2 (centres unmarked) [δT-13’-COOH, δT-13’-carboxychromanol]",IC50,[2],2500 to 5000 nM
same,Impact on THAP-induced 5-LOX translocation (in words),[3],did not show any significant impact
same,Nature of inhibition of 5-LOX,human recombinant 5-LOX [4],competitive inhibitor
"Cc1c(O)cc2c(c1C)O[C@](C)(CCC[C@H](C)CCC[C@H](C)CCCC(C)C)CC2 [γT, γ-tocopherol]",IC50,human recombinant COX-1,1000 to 2500 nM
same,Effect on THAP-stimulated LTB4 (in words),[5],no significant effect
"Cc1cc(O)cc2c1O[C@](C)(CCC[C@H](C)CCC[C@H](C)CCCC(C)C)CC2 [δT, δ-tocopherol]",Effect on THAP-stimulated LTB4 (in words),[5],no significant effect
"Cc1c(C)c2c(c(C)c1O)CC[C@@](C)(CCC[C@H](C)CCC[C@H](C)CCCC(C)C)O2 [αT, α-tocopherol]",IC50,human recombinant COX-1,~12000 nM
"C/C(=C\CC/C(C)=C/CC[C@]1(C)CCc2cc(O)cc(C)c2O1)CC/C=C(\C)C(=O)O [δTE-13’-COOH, δTE-13’-carboxychromanol]",IC50,[2],2500 to 5000 nM
same,Impact on THAP-induced 5-LOX translocation (in words),[3],did not show any significant impact
same,IC50,LTB4 in cells,~260 nM
"CC(C)=CCC/C(C)=C/CC/C(C)=C/CC[C@]1(C)CCc2cc(O)cc(C)c2O1 [δTE, δ-tocotrienol]",Impact on THAP-induced 5-LOX translocation (in words),[3],did not show any significant impact
same,IC50,human recombinant COX-1,1000 to 2500 nM
same,Effect on A23187-stimulated LTB4 (in words),"[5]; neutrophil-like HL-60 cells, data not shown",inhibited
same,Ki,human recombinant 5-LOX [4],2200 nM
same,Nature of inhibition of 5-LOX,human recombinant 5-LOX [4],competitive inhibitor
same,IC50,human recombinant 5-LOX [1],4300 nM
"CC(C)=CCC/C(C)=C/CC/C(C)=C/CC[C@]1(C)CCc2cc(O)c(C)c(C)c2O1 [γTE, γ-tocotrienol]",Impact on THAP-induced 5-LOX translocation (in words),[3],did not show any significant impact
same,Effect on A23187-stimulated 5-LOX translocation (in words),[6],modestly blocked
same,IC50,human recombinant COX-1,1000 to 2500 nM
same,IC50,human recombinant 5-LOX [1],4300 nM
human recombinant 5-LOX (Homo sapiens) (protein) MPSYTVTVATGSQWFAGTDDYIYLSLVGSAGCSEKHLLDKPFYNDFERGAVDSYDVTVDEELGEIQLVRIEKRKYWLNDDWYLKYITLKTPHGDYIEFPCYRWITGDVEVVLRDGRAKLARDDQIHILKQHRRKELETRQKQYRWMEWNPGFPLSIDAKCHKDLPRDIQFDSEKGVDFVLNYSKAMENLFINRFMHMFQSSWNDFADFEKIFVKISNTISERVMNHWQEDLMFGYQFLNGCNPVLIRRCTELPEKLPVTTEMVECSLERQLSLEQEVQQGNIFIVDFELLDGIDANKTDPCTLQFLAAPICLLYKNLANKIVPIAIQLNQIPGDENPIFLPSDAKYDWLLAKIWVRSSDFHVHQTITHLLRTHLVSEVFGIAMYRQLPAVHPIFKLLVAHVRFTIAINTKAREQLICECGLFDKANATGGGGHVQMVQRAMKDLTYASLCFPEAIKARGMESKEDIPYYFYRDDGLLVWEAIRTFTAEVVDIYYEGDQVVEEDPELQDFVNDVYVYGMRGRKSSGFPKSVKSREQLSEYLTVVIFTASAQHAAVNFGQYDWCSWIPNAPPTMRAPPPTAKGVVTIEQIVDTLPDRGRSCWHLGAVWALSQFQENELFLGMYPEEHFIEKPVKEAMARFRKNLEAIVSVIAERNKKKQLPYYYLSPDRIPNSVAI,Km,5-LOX enzyme kinetics,2.1 µM
